Measured values: paper PMC6364417, “Kinase inhibitor library screening identifies synergistic drug combinations effective in sensitive and resistant melanoma cells” (Journal of Experimental & Clinical Cancer Research : CR, 2019)

What was measured:
Assay in all cases: Kinase inhibitor library screening, PrestoBlue cell viability, 1 or 10 μM, 72 h
[1] = test system: 501Mel cells (parental); settings: for cell viability (kinase inhibitor library screening): 501Mel Parental
Method in brief: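 Each compound was applied to parental melanoma cells and to derivatives made resistant to Vemurafenib or Dabrafenib. After treatment, viability was read with PrestoBlue on a plate reader and expressed as % of untreated cells, with each line run at least in duplicate.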

[2] = test system: 501Mel-GP cells (Dabrafenib-resistant); settings: for cell viability (kinase inhibitor library screening): 501Mel GP
[3] = test system: IGR37 cells (parental); settings: for cell viability (kinase inhibitor library screening): IGR37 Parental
[4] = test system: IGR37-XP cells (Vemurafenib-resistant); settings: for cell viability (kinase inhibitor library screening): IGR37 XP
[5] = test system: IGR37-GP cells (Dabrafenib-resistant); settings: for cell viability (kinase inhibitor library screening): IGR37 GP
[6] = test system: 501Mel-XP cells (Vemurafenib-resistant); settings: for cell viability (kinase inhibitor library screening): 501Mel XP
[7] = test system: A375 cells (parental); settings: for cell viability (kinase inhibitor library screening): A375 Parental
[8] = test system: A375-XP cells (Vemurafenib-resistant); settings: for cell viability (kinase inhibitor library screening): A375 XP
[9] = test system: A375-GP cells (Dabrafenib-resistant); settings: for cell viability (kinase inhibitor library screening): A375 GP

## Oc1c2ccccc2c2c3c(cccc13)N=N2 [SP600125]
[1]; Homo sapiens, 72 h, read-out: cell viability, 501Mel Parental, 1μΜ
  viability at 1 µM: 107%
[1]; Homo sapiens, 72 h, read-out: cell viability, 501Mel Parental, 10μΜ
  viability at 10 µM: 75.1%
[2]; Homo sapiens, 72 h, read-out: cell viability, 501Mel GP, 1μΜ
  viability at 1 µM: 95.4%
[2]; Homo sapiens, 72 h, read-out: cell viability, 501Mel GP, 10μΜ
  viability at 10 µM: 66.8%
[3]; Homo sapiens, IGR-37, 72 h, read-out: cell viability, IGR37 Parental, 1μΜ
  viability at 1 µM: 98.4%
[3]; Homo sapiens, IGR-37, 72 h, read-out: cell viability, IGR37 Parental, 10μΜ
  viability at 10 µM: 70.6%
[4]; Homo sapiens, IGR-37, 72 h, read-out: cell viability, IGR37 XP, 1μΜ
  viability at 1 µM: 96.5%
[4]; Homo sapiens, IGR-37, 72 h, read-out: cell viability, IGR37 XP, 10μΜ
  viability at 10 µM: 45.8%
[5]; Homo sapiens, IGR-37, 72 h, read-out: cell viability, IGR37 GP, 1μΜ
  viability at 1 µM: 92.5%
[5]; Homo sapiens, IGR-37, 72 h, read-out: cell viability, IGR37 GP, 10μΜ
  viability at 10 µM: 74.4%
[6]; Homo sapiens, 72 h, read-out: cell viability, 501Mel XP, 1μΜ
  viability at 1 µM: 94.3%
[6]; Homo sapiens, 72 h, read-out: cell viability, 501Mel XP, 10μΜ
  viability at 10 µM: 54.5%
[7]; Homo sapiens, A-375, 72 h, read-out: cell viability, A375 Parental, 1μΜ
  viability at 1 µM: 102%
[7]; Homo sapiens, A-375, 72 h, read-out: cell viability, A375 Parental, 10μΜ
  viability at 10 µM: 79.2%
[8]; Homo sapiens, A-375, 72 h, read-out: cell viability, A375 XP, 1μΜ
  viability at 1 µM: 103%
[8]; Homo sapiens, A-375, 72 h, read-out: cell viability, A375 XP, 10μΜ
  viability at 10 µM: 91.5%
[9]; Homo sapiens, A-375, 72 h, read-out: cell viability, A375 GP, 1μΜ
  viability at 1 µM: 98.3%
[9]; Homo sapiens, A-375, 72 h, read-out: cell viability, A375 GP, 10μΜ
  viability at 10 µM: 83.9%

## Cc1[nH]c(/C=C2\C(=O)Nc3ccc(S(=O)(=O)N(C)c4cccc(Cl)c4)cc32)c(C)c1C(=O)N1CCN(C)CC1 [SU11274]
[1]; 1μΜ, 72 h
  cell viability (kinase inhibitor library screening): 107.1%
[1]; 10μΜ, 72 h
  cell viability (kinase inhibitor library screening): 12.1%
[2]; 1μΜ, 72 h
  cell viability (kinase inhibitor library screening): 111.1%
[2]; 10μΜ, 72 h
  cell viability (kinase inhibitor library screening): 33.6%
[3]; 1μΜ, 72 h
  cell viability (kinase inhibitor library screening): 117.2%
[3]; 10μΜ, 72 h
  cell viability (kinase inhibitor library screening): 13.1%
[4]; 1μΜ, 72 h
  cell viability (kinase inhibitor library screening): 105.9%
[4]; 10μΜ, 72 h
  cell viability (kinase inhibitor library screening): 19.7%
[5]; 1μΜ, 72 h
  cell viability (kinase inhibitor library screening): 103.1%
[5]; 10μΜ, 72 h
  cell viability (kinase inhibitor library screening): 37.8%
[6]; 1μΜ, 72 h
  cell viability (kinase inhibitor library screening): 92.2%
[6]; 10μΜ, 72 h
  cell viability (kinase inhibitor library screening): 0.0577%
[7]; 10μΜ, 72 h
  cell viability (kinase inhibitor library screening): 65.8%
[7]; 1μΜ, 72 h
  cell viability (kinase inhibitor library screening): 112.5%
[8]; 1μΜ, 72 h
  cell viability (kinase inhibitor library screening): 111.1%
[8]; 10μΜ, 72 h
  cell viability (kinase inhibitor library screening): 22.4%
[9]; 1μΜ, 72 h
  cell viability (kinase inhibitor library screening): 104.3%
[9]; 10μΜ, 72 h
  cell viability (kinase inhibitor library screening): 46.3%

## CN1CCN(CCOc2cc(OC3CCOCC3)c3c(Nc4c(Cl)ccc5c4OCO5)ncnc3c2)CC1 [Saracatinib (AZD0530)]
[1]; 1μΜ, in %
  cell viability (kinase inhibitor library screening): 105.0
[2]; 1μΜ, in %
  cell viability (kinase inhibitor library screening): 100.5
[2]; 10μΜ, in %
  cell viability (kinase inhibitor library screening): 90.5
[3]; 10μΜ, in %
  cell viability (kinase inhibitor library screening): 96.3
[4]; 1μΜ, in %
  cell viability (kinase inhibitor library screening): 97.3
[4]; 10μΜ, in %
  cell viability (kinase inhibitor library screening): 61.7
[5]; 1μΜ, in %
  cell viability (kinase inhibitor library screening): 96.8
[5]; 10μΜ, in %
  cell viability (kinase inhibitor library screening): 77.9
[6]; 1μΜ, in %
  cell viability (kinase inhibitor library screening): 95.7
[6]; 10μΜ, in %
  cell viability (kinase inhibitor library screening): 79.4
[7]; 1μΜ, in %
  cell viability (kinase inhibitor library screening): 92.2
[7]; 10μΜ, in %
  cell viability (kinase inhibitor library screening): 71.5
[8]; 1μΜ, in %
  cell viability (kinase inhibitor library screening): 92.8
[8]; 10μΜ, in %
  cell viability (kinase inhibitor library screening): 71.3
[9]; 1μΜ, in %
  cell viability (kinase inhibitor library screening): 81.5
[9]; 10μΜ, in %
  cell viability (kinase inhibitor library screening): 56.9

## Cc1cc(C)c(/C=C2\C(=O)Nc3ccccc32)[nH]1 [Semaxanib (SU5416)]
[1]; 1μΜ, in %
  cell viability (kinase inhibitor library screening): 100.0
[1]; 10μΜ, in %
  cell viability (kinase inhibitor library screening): 90.0
[2]; 1μΜ, in %
  cell viability (kinase inhibitor library screening): 104.6
[2]; 10μΜ, in %
  cell viability (kinase inhibitor library screening): 82.4
[3]; 1μΜ, in %
  cell viability (kinase inhibitor library screening): 100.1
[3]; 10μΜ, in %
  cell viability (kinase inhibitor library screening): 97.0
[4]; 1μΜ, in %
  cell viability (kinase inhibitor library screening): 100.1
[4]; 10μΜ, in %
  cell viability (kinase inhibitor library screening): 61.3
[5]; 1μΜ, in %
  cell viability (kinase inhibitor library screening): 92.4
[5]; 10μΜ, in %
  cell viability (kinase inhibitor library screening): 88.3
[6]; 1μΜ, in %
  cell viability (kinase inhibitor library screening): 89.0
[6]; 10μΜ, in %
  cell viability (kinase inhibitor library screening): 70.1
[7]; 1μΜ, in %
  cell viability (kinase inhibitor library screening): 104.2
[7]; 10μΜ, in %
  cell viability (kinase inhibitor library screening): 98.1
[8]; 10μΜ, in %
  cell viability (kinase inhibitor library screening): 97.5
[9]; 1μΜ, in %
  cell viability (kinase inhibitor library screening): 106.4
[9]; 10μΜ, in %
  cell viability (kinase inhibitor library screening): 85.4
